US20050288503A1, “Novel compounds” (priority 2002, published 2005)

Target: CSBP/p38 (Homo sapiens, UniProt Q16539)
Experiment: CSBP/p38 Kinase Assay (32P transfer from ATP to EGFR-derived T669 peptide)
Format: biochemical
Conditions: for IC50: yeast-expressed, activated and purified p38, 0.17 mM ATP, T669 peptide, read-out: positive inhibitory activity in the CSBP/p38 kinase assay at; for activity on retesting at a higher concentration: retested at 67 uM

Chain of CSBP/p38 (Q16539 whole entry): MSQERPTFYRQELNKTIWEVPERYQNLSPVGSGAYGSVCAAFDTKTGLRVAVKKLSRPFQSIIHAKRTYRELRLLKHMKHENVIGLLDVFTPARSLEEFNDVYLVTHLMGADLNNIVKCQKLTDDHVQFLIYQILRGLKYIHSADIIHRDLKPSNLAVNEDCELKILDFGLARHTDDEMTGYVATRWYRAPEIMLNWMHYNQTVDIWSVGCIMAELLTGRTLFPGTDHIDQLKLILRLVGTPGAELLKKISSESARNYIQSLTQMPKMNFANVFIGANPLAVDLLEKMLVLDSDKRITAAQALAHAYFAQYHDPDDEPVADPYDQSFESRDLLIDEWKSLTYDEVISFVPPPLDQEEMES

Row | SMILES | IC50 [µM] | activity on retesting at a higher concentration
1 | Cn1cnc2c(N(C(N)=O)c3c(F)cccc3F)nc(-c3cc(F)cc(F)c3)nc21 [Example 46, 1-(2,6-difluoro-phenyl)-1-[2-(3,5-difluoro-phenyl)-9-methyl-9H-purin-6-yl]-urea] |  | active
2 | Fc1ccccc1-c1nc(Nc2c(F)cccc2F)c2ncn(Cc3ccccc3)c2n1 [Example 23] | < 50 | 
3 | Cn1cnc2c(N(C(N)=O)c3c(F)cccc3F)nc(-c3ccc(Cl)cc3)nc21 [Example 35, 1-[2-(4-chloro-phenyl)-9-methyl-9H-purin-6-yl]-1-(2,6-difluoro-phenyl)-urea] |  | active
4 | CN(C)CCn1cnc2c(Nc3c(F)cccc3F)nc(-c3ccccc3F)nc21 [Example 22, (2,6-difluoro-phenyl)-[9-(2-dimethylamino-ethyl)-2-(2-fluoro-phenyl)-9H-purin-6-yl]-amine] | < 50 | 

Results, then the molecule that gave them:

Row | IC50 [µM] | activity on retesting at a higher concentration | SMILES
5 | < 50 |  | Cc1ccc(-c2nc(Nc3c(F)cccc3F)c3ncn(C)c3n2)cc1 [Example 14, (2,6-difluoro-phenyl)-(9-methyl-2-p-tolyl-9H-purin-6-yl)-amine]
6 | < 50 |  | Cn1cnc2c(Nc3c(F)cccc3F)nc(-c3ccccc3Cl)nc21 [Example 11, [2-(2-chloro-phenyl)-9-methyl-9H-purin-6-yl]-(2,6-difluoro-phenyl)-amine]
7 | < 50 |  | Cn1cnc2c(Nc3c(F)cccc3F)nc(-c3ccccc3F)nc21 [Example 17, (2,6-difluoro-phenyl)-[2-(2-fluoro-phenyl)-9-methyl-9H-purin-6-yl]-amine]
8 | < 50 |  | Cn1cnc2c(Nc3c(F)cccc3F)nc(-c3ccc(F)cc3F)nc21 [Example 19, (2,6-difluoro-phenyl)-[2-(2,4-difluoro-phenyl)-9-methyl-9H-purin-6 yl]-amine]
